The subject of the assay is MCF7. The assay can be described thus: Antiproliferative activity against human MCF7 cells after 72 hrs by MTT assay. The assay is classed as functional, cell-based. The settings on record: MCF7, 72 h. (In general: Tetrazolium dyes change colour on reduction, which living cells bring about.)
As for `C/C=C(\C)C(=O)N[C@@H](c1ccccc1)[C@@H](O)C(=O)O[C@H]1C[C@@]2(O)[C@@H](OC(=O)c3ccccc3)[C@@H]3[C@]4(OC(C)=O)CO[C@@H]4C[C@H](O)[C@@]3(C)C(=O)[C@H](OC(C)=O)C(=C1C)C2(C)C` [CEPHALOMANNINE], the IC50 was found to be 6 nM.

Compound `CC(=O)O[C@H]1C[C@H]2OC[C@@]2(OC(C)=O)[C@H]2[C@H](OC(=O)c3ccccc3)[C@]3(O)C[C@H](OC(=O)[C@H](O)[C@@H](NC(=O)c4ccccc4)c4ccccc4)C(C)=C([C@@H](O)C(=O)[C@]12C)C3(C)C` had an IC50 of 10 nM.

As to `CC(=O)O[C@@]12CO[C@@H]1C[C@H](O)[C@@]1(C)C(=O)C(=O)C3=C(C)[C@@H](OC(=O)[C@H](O)[C@@H](NC(=O)c4ccccc4)c4ccccc4)C[C@@](O)([C@@H](OC(=O)c4ccccc4)[C@H]21)C3(C)C`, the IC50 was determined as 64 nM. This IC50 lies about 6.4-fold higher than the previous one.

Regarding `C/C=C(\C)C(=O)N[C@@H](c1ccccc1)[C@@H](O)C(=O)O[C@H]1C[C@@]2(O)[C@@H](OC(=O)c3ccccc3)[C@@H]3[C@]4(OC(C)=O)CO[C@@H]4C[C@@H](O)[C@@]3(C)C(=O)C(=O)C(=C1C)C2(C)C`, the IC50 was determined as 80 nM.

What is called IC50 is the concentration needed to halve the response being measured. Read a low IC50 as higher potency.

These data come from ChEMBL document CHEMBL1150812, “New taxane analogues from the needles of Taxus canadensis” (J Nat Prod, 2001).
